Reference: patent publication US8207223B2, “Pharmaceutical composition for treatment of diseases associated with decrease in bone mass comprising EP4 agonist as active ingredient” (Ono Pharmaceutical Co., Ltd., priority 2001, dated 2012)

Tests used:
fibula bone fracture = assay: Effect of accelerating cure of bone fracture (rat fibula fracture model; callus bone density and three-point bending strength); type: in vivo, male IGS rats; conditions: 50 ng/kg/min intravenously for 2 hours twice a day for 21 days
Procedure: (ix) Effect of Accelerating Cure of Bone Fracture
According to the methods of R. Sakai (Bone, 25, 191-196 (1999)), H. Kawaguchi (Endocrinology, 135, 774-781 (1994)) and T. Hoshino (J. Biomed Mater Res., 51, 229-306 (2000)), a bone fracture model was prepared with male IGS rats of 8 weeks of age. Hair of the left hind-limb of a rat was cut under anesthetization with pentobarbital Na, and Viccillin S 500 (500 mg potency) (Meiji Seika) was intramuscularly injected at a dose of 10 mg potency/100 μl distilled water/body. Then, the skin on the fibula (from the back of knee joint to tendo Achillis) was incised to ablate the muscular tissue and expose the fibula. […] The recovered fibulae were taken radiographs to assess development of the cure of fracture based on the presence of a fracture line and callus formation, and the density and strength of the bone around the fracture portion were measured. […]
The bone density of the callus region at the fracture position of the recovered fibula was measured referring to the reports of C. […] During photographing, a phantom for quantitative analysis of bone salt for mice (Kyoto Kagaku Co.) was set together in order to make an analytical curve for measurement of bone density. The image was read by a Bio-imaging Analyzer BAS-1800 (FUJIFILM)/Image Reader (FUJIFILM) and processed with an Image Gauge, ver.3.1.12 (FUJIFILM). […]

murine EP4 = target: T1, murine EP4 (Mus musculus, UniProt P32240); assay: Receptor-binding experiment (3H-PGE2 binding inhibition) using membranes of CHO cells expressing prostanoid receptor sub-types; conditions: binding to EP4 receptor, CHO cell membranes, read-out: Dissociation Constant Ki
T1 construct: expressed in transfected cells; host or cells: CHO cells (membrane fraction)
Procedure: (i) Experiment for receptor-binding using cells which express prostanoid receptor sub-types
According to the method of Sugimoto et al. (J. Biol. Chem., 267, 6463-6466 (1992)), CHO cells which expressed prostanoid receptor sub-types (murine EP1, EP2, EP3α, and EP4, respectively) were prepared and used as membrane authentic samples.
A reaction solution (200 μl) containing the prepared membrane fraction (0.5 mg/ml) and ^3H-PGE2 was incubated at room temperature for 1 hour. The reaction was terminated with ice cold buffer (3 ml), and the reaction mixture was filtered under suction through a glass filter (GF/B), on which the binding ^3H-PGE2 was trapped, and the binding radioactivity was measured by means of a liquid scintillator.
The Kd value was obtained from the Acatchard plots [Ann. N.Y. Acad. Sci., 51, 660 (1949)]. Non-specific binding was obtained as the binding in the presence of an excess amount (2.5 μM) of unlabelled PGE2. Measurement of the binding inhibition for ^3H-PGE2 with the compounds of the invention was performed by adding ^3H-PGE2 (2.5 nM) and a series of concentrations of the compound of the invention. In this reaction, the following buffer was used in all cases. • Buffer: 10 mM potassium phosphate (pH 6.9), 1 mM EDTA, 10 mM MgCl2, and 0.1M NaCl.
Dissociation constant Ki (μM) of each compound was calculated from the following equation. Ki=IC50/(1+([C]/Kd))

[1] = system: collagen-induced arthritis; assay: Arthritis induced by collagen in rats; type: in vivo, female DA/Slc rat; conditions: limbs scored at 27 days, full score 30, *p < 0.05
Procedure: (iv) Inhibitive Effect for Chronic Articular Rheumatism
(1) Arthritis Induced by Collagen in Rats
Experiment was performed according to the method of Osterman et al. (Inflamm. Res., 44, 258-263). An inducing agent (an emulsion prepared by adding an equal volume of physiological saline and 2 equivalent volume of incomplete Freund adjuvant to 0.3% solution of type II collagen of bovine origin) 0.1 ml each was applied intracutaneously to the 4 sites of the back of a female DA/Slc rat. After a lapse of 1 week, the same inducing agent was further applied intracutaneously to the tail root to induce arthritis. At 27 days the limbs were scored responding to the degree of redness and edema and assessed as 30 was regarded as full scores. The compound of the invention was dissolved in an equimolar amount of 0.02 mole/L sodium hydroxide solution, diluted with distilled water, and orally given 3 times a day from the next day of the first administration of inducer.

T1 sequence (P32240 whole entry): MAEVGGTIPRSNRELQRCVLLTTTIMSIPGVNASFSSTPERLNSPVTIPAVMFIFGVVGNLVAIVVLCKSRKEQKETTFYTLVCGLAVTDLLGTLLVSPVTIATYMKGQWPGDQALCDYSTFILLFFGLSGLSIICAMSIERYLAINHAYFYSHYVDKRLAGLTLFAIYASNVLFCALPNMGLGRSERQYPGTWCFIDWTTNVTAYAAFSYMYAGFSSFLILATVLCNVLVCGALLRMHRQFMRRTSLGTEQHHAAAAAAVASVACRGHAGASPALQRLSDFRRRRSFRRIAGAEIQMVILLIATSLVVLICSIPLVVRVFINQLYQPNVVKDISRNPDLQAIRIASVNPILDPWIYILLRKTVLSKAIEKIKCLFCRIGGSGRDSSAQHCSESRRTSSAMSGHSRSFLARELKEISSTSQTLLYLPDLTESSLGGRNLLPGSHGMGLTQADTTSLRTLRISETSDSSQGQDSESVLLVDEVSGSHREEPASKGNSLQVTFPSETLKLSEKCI

COCc1cccc(C[C@H](O)/C=C/[C@H]2[C@H](O)CC(=O)[C@@H]2CCSCCCC(=O)OC)c1 [Compound (1), (11α,15α,13E)-9-Oxo-11,15-dihydroxy-16-(3-methoxymethylphenyl)-17,18,19,20-tetranor-5-thiaprost-13-enoic acid methyl ester]
Bone Density (fibula bone fracture; callus region): 42.8 ± 2.58 mg/cm^2
Fracture Strength (fibula bone fracture; three-point bending test): 30.4 ± 12.4% of intact

O=C(O)CCCCCCN1C(=O)CC[C@@H]1/C=C/[C@@H](O)Cc1cccc(C#Cc2ccccc2)c1 [Example 2(pp), (15α,13E)-9-Oxo-15-hydroxy-16-(3-(2-phenylethynyl)phenyl)-17,18,19,20-tetranor-8-azaprost-13-enoic acid]
Ki (murine EP4): 0.24 nM

O=C(O)CCCSCCN1C(=O)CC[C@@H]1/C=C/[C@@H](O)Cc1cccc(Cl)c1 [Example 3 (b), (15α,13E)-9-Oxo-15-hydroxy-16-(3-chlorophenyl)-17,18,19,20-tetranor-5-thia-8-azaprost-13-enoic acid]
Arthritic Score (Means ± SE) ([1]; 300 μg/kg orally 3 times a day): 19.3 ± 1.4*

Cc1ccc(C[C@H](O)/C=C/[C@H]2CCC(=O)N2CCSCCCC(=O)O)o1 [Example 3 (kk), (15α,13E)-9-Oxo-5-hydroxy-16-(5-methylfuran-2-yl)-17,18,19,20-tetranor-5-thia-8-azaprost-13-enoic acid]
Arthritic Score (Means ± SE) ([1]; 100 μg/kg orally 3 times a day): 11.9 ± 3.6*

O=C(O)CCCSCCN1C(=O)CC[C@@H]1/C=C/[C@@H](O)Cc1ccc(F)cc1 [Example 3 (l), (15α,13E)-9-Oxo-15-hydroxy-16-(4-fluorophenyl)-17,18,19,20-tetranor-5-thia-8-azaprost-13-enoic acid]
Arthritic Score (Means ± SE) ([1]; 100 μg/kg orally 3 times a day): 16.3 ± 3.0*

CCCc1cccc(C[C@H](O)/C=C/[C@H]2CCC(=O)N2CCSCCCC(=O)O)c1 [Example 3(e), (15α,13E)-9-Oxo-15-hydroxy-16-(3-propylphenyl)-17,18,19,20-tetranor-5-thia-8-azaprost-13-enoic acid]
Ki (murine EP4): 0.71 nM

O=C1CC[C@H](/C=C/[C@@H](O)Cc2ccc(F)cc2)N1CCSCCCCO [Example 4 (h), (15α,13E)-9-Oxo-15-hydroxy-16-(4-fluorophenyl)-17,18,19,20-tetranor-5-thia-8-azaprost-13-en-1-ol]
Arthritic Score (Means ± SE) ([1]; 300 μg/kg orally 3 times a day): 9.8 ± 1.9*
